PubChem BioAssay (NCI)
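GI50: concentration for 50% inhibition of growth. TGI: concentration producing complete growth inhibition.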

Assays:
Assay in all cases: NCI tumour cell line growth inhibition, 384-well format
RPMI-8226 leukemia = test system: RPMI-8226 leukemia
NCI-H322M lung = test system: NCI-H322M lung
786-0 renal = test system: 786-0 renal
SF-295 CNS = test system: SF-295 CNS
HT29 colon = test system: HT29 colon
COLO 205 colon = test system: COLO 205 colon
SNB-19 CNS = test system: SNB-19 CNS
MOLT-4 leukemia = test system: MOLT-4 leukemia
DU-145 prostate = test system: DU-145 prostate
HCT-15 colon = test system: HCT-15 colon
IGROV1 ovarian = test system: IGROV1 ovarian
SF-268 CNS = test system: SF-268 CNS
MDA-MB-231 breast = test system: MDA-MB-231 breast
RXF 393 renal = test system: RXF 393 renal
A549 NSCLC = test system: A549 NSCLC
UACC-62 melanoma = test system: UACC-62 melanoma
SK-MEL-5 melanoma = test system: SK-MEL-5 melanoma
NCI-H226 lung = test system: NCI-H226 lung
PC-3 prostate = test system: PC-3 prostate
HL-60(TB) leukemia = test system: HL-60(TB) leukemia
UO-31 renal = test system: UO-31 renal
OVCAR-3 ovarian = test system: OVCAR-3 ovarian
SR leukemia = test system: SR leukemia
NCI-H460 NSCLC = test system: NCI-H460 NSCLC
U251 glioblastoma = test system: U251 glioblastoma
ACHN renal = test system: ACHN renal
SF-539 CNS = test system: SF-539 CNS
CAKI-1 renal = test system: CAKI-1 renal
SK-OV-3 ovarian = test system: SK-OV-3 ovarian
MDA-MB-435 melanoma = test system: MDA-MB-435 melanoma
CCRF-CEM leukemia = test system: CCRF-CEM leukemia
EKVX NSCLC = test system: EKVX NSCLC
OVCAR-8 ovarian = test system: OVCAR-8 ovarian
BT-549 breast = test system: BT-549 breast
OVCAR-5 ovarian = test system: OVCAR-5 ovarian
TK-10 renal = test system: TK-10 renal
HOP-62 NSCLC = test system: HOP-62 NSCLC
T-47D breast = test system: T-47D breast
MCF7 breast = test system: MCF7 breast
OVCAR-4 ovarian = test system: OVCAR-4 ovarian
HOP-92 NSCLC = test system: HOP-92 NSCLC
NCI-H522 lung = test system: NCI-H522 lung
SW-620 colon = test system: SW-620 colon
UACC-257 melanoma = test system: UACC-257 melanoma
KM12 colon = test system: KM12 colon
HCC-2998 colon = test system: HCC-2998 colon
SN12C renal = test system: SN12C renal
A498 renal = test system: A498 renal
M14 melanoma = test system: M14 melanoma
HCT-116 colon = test system: HCT-116 colon
NCI-H23 lung = test system: NCI-H23 lung
LOX IMVI melanoma = test system: LOX IMVI melanoma
NCI/ADR-RES ovarian = test system: NCI/ADR-RES ovarian
SK-MEL-28 melanoma = test system: SK-MEL-28 melanoma
MDA-MB-468 breast = test system: MDA-MB-468 breast
MALME-3M melanoma = test system: MALME-3M melanoma
SNB-75 CNS = test system: SNB-75 CNS
HS 578T breast = test system: HS 578T breast

C=CC(=O)N1CCN(c2nc(=O)n(-c3c(C)ccnc3C(C)C)c3nc(-c4c(O)cccc4F)c(F)cc23)[C@@H](C)C1
GI50 (RPMI-8226 leukemia): 16.6 µM | TGI (RPMI-8226 leukemia): 32.5 µM | GI50 (NCI-H322M lung): 44.6 µM | TGI (NCI-H322M lung): > 100 µM | GI50 (786-0 renal): 21.4 µM | TGI (786-0 renal): 44.4 µM | GI50 (SF-295 CNS): 33.4 µM | TGI (SF-295 CNS): > 88.3 µM | GI50 (HT29 colon): 33.2 µM | TGI (HT29 colon): > 100 µM | GI50 (COLO 205 colon): 24.7 µM | TGI (COLO 205 colon): 58.8 µM | GI50 (SNB-19 CNS): 53.9 µM | TGI (SNB-19 CNS): > 100 µM | GI50 (MOLT-4 leukemia): 9.94 µM | TGI (MOLT-4 leukemia): 22.2 µM | GI50 (DU-145 prostate): 25.3 µM | TGI (DU-145 prostate): 74.7 µM | GI50 (HCT-15 colon): 27.2 µM | TGI (HCT-15 colon): > 65.3 µM | GI50 (IGROV1 ovarian): 27 µM | TGI (IGROV1 ovarian): 71 µM | GI50 (SF-268 CNS): 27.8 µM | TGI (SF-268 CNS): 79.8 µM | GI50 (MDA-MB-231 breast): 24.3 µM | TGI (MDA-MB-231 breast): 57 µM | GI50 (RXF 393 renal): 4.34 µM | TGI (RXF 393 renal): 14.3 µM | GI50 (A549 NSCLC): 32.5 µM | TGI (A549 NSCLC): > 85.6 µM | GI50 (UACC-62 melanoma): 43.5 µM | TGI (UACC-62 melanoma): > 100 µM | GI50 (SK-MEL-5 melanoma): 21.6 µM | TGI (SK-MEL-5 melanoma): 46.5 µM | GI50 (NCI-H226 lung): 20.5 µM | TGI (NCI-H226 lung): 52.2 µM | GI50 (PC-3 prostate): 35.9 µM | TGI (PC-3 prostate): > 94.4 µM | GI50 (HL-60(TB) leukemia): 19.8 µM | TGI (HL-60(TB) leukemia): 35.5 µM | GI50 (UO-31 renal): 69.7 µM | TGI (UO-31 renal): > 100 µM | GI50 (OVCAR-3 ovarian): 22 µM | TGI (OVCAR-3 ovarian): 50.8 µM | GI50 (SR leukemia): 6.68 µM | TGI (SR leukemia): 18.9 µM | GI50 (NCI-H460 NSCLC): 28.2 µM | TGI (NCI-H460 NSCLC): 65.4 µM | GI50 (U251 glioblastoma): 22 µM | TGI (U251 glioblastoma): 52.6 µM | GI50 (ACHN renal): 30.2 µM | TGI (ACHN renal): > 68.2 µM | GI50 (SF-539 CNS): 17.4 µM | TGI (SF-539 CNS): 33.3 µM | GI50 (CAKI-1 renal): 30.9 µM | TGI (CAKI-1 renal): > 89.7 µM | GI50 (SK-OV-3 ovarian): 46.5 µM | TGI (SK-OV-3 ovarian): > 100 µM | GI50 (MDA-MB-435 melanoma): 62.4 µM | TGI (MDA-MB-435 melanoma): > 100 µM | GI50 (CCRF-CEM leukemia): 18.8 µM | TGI (CCRF-CEM leukemia): 34.2 µM | GI50 (EKVX NSCLC): 37.1 µM | TGI (EKVX NSCLC): > 100 µM | GI50 (OVCAR-8 ovarian): 19.7 µM | TGI (OVCAR-8 ovarian): 36.6 µM | GI50 (BT-549 breast): 15.7 µM | TGI (BT-549 breast): 35.2 µM | GI50 (OVCAR-5 ovarian): > 100 µM | TGI (OVCAR-5 ovarian): > 100 µM | GI50 (TK-10 renal): 46.2 µM | TGI (TK-10 renal): > 100 µM | GI50 (HOP-62 NSCLC): 54.3 nM | TGI (HOP-62 NSCLC): 26 µM | GI50 (T-47D breast): > 81.3 µM | TGI (T-47D breast): > 100 µM | GI50 (MCF7 breast): 36.9 µM | TGI (MCF7 breast): > 100 µM | GI50 (OVCAR-4 ovarian): 43.8 µM | TGI (OVCAR-4 ovarian): > 100 µM | GI50 (HOP-92 NSCLC): 48.6 µM | TGI (HOP-92 NSCLC): > 100 µM | GI50 (NCI-H522 lung): 21.1 µM | TGI (NCI-H522 lung): 43.2 µM | GI50 (SW-620 colon): 36.8 µM | TGI (SW-620 colon): > 100 µM | GI50 (UACC-257 melanoma): 37.1 µM | TGI (UACC-257 melanoma): > 100 µM | GI50 (KM12 colon): 31.5 µM | TGI (KM12 colon): > 75.8 µM | GI50 (HCC-2998 colon): 15 µM | TGI (HCC-2998 colon): 29.6 µM | GI50 (SN12C renal): 50.3 µM | TGI (SN12C renal): > 100 µM | GI50 (A498 renal): 31.1 µM | TGI (A498 renal): > 82.8 µM | GI50 (M14 melanoma): 32.1 µM | TGI (M14 melanoma): > 79.9 µM | GI50 (HCT-116 colon): 17.5 µM | TGI (HCT-116 colon): 35.6 µM | TGI (NCI-H23 lung): 592 nM | GI50 (LOX IMVI melanoma): 16.6 µM | TGI (LOX IMVI melanoma): 31.8 µM | GI50 (NCI/ADR-RES ovarian): > 100 µM | TGI (NCI/ADR-RES ovarian): > 100 µM | GI50 (SK-MEL-28 melanoma): > 100 µM | TGI (SK-MEL-28 melanoma): > 100 µM | GI50 (MDA-MB-468 breast): 13 µM | TGI (MDA-MB-468 breast): 37.2 µM | GI50 (MALME-3M melanoma): 14.7 µM | TGI (MALME-3M melanoma): 35.3 µM | GI50 (SNB-75 CNS): 54.2 µM | TGI (SNB-75 CNS): 97.5 µM | GI50 (HS 578T breast): 13.9 µM | TGI (HS 578T breast): 35.1 µM
